Data reported in patent US20020162794A1, “Anaerobic digestion” (priority 2001, published 2002).
Where “and” joins values, the source holds several entries; their conditions need not be identical. Identical values can stand only once.

How the values were obtained:
[1] = test system: bacteria of the mixed anaerobic digester culture; test: Bacterial colony counts from formate bioreactors; type: cell-based
Protocol: Procedure for Bacterial Colony Counts from Formate Bioreactors
1. Collect samples from each bioreactor in sterile 30-mL glass vials with screw caps.
2. All subsequent operations are performed aseptically in the anaerobic chamber under an atmosphere of 3% H2/7% CO2/90% N2.
4. Seed 0.1-mL samples form the dilution blanks into tryptic soy agar plates.
5. Inoculate three plates for each dilution. Final dilutions on the plates are 10^−3 and 10^−4
6. Incubate all plates anaerobically for 3-4 days at room temperature (approximately 25° C.) prior to manually counting the numbers of colonies on each plate.
7. Calculate the numbers of colony-forming units (CFU) per ml in the original samples.

[2] = test system: mixed culture from municipal sludge digester; test: Total Solids (TS) of batch anaerobic digester reactors
Protocol: A 30 ml samples is withdrawn from each of the 12 reactors into refractory pans after the weight of empty pans was recorded (say W1). […] The weight of pans with dried sample is then noted (say W2). The difference W2˜W1, gives the weight of solids in 30 ml sample. From this the total Solids concentration in units of g/liter is calculated. This TS parameter is indicative of concentration of total solids in the sample including organic substrate, inert organics and inorganics.
(§1) Municipal sludge from the city of Lubbock, Wastewater Treatment Plant was digested in 12 batch digesters. Using twelve batch reactors allowed the collection of control reactors data (i.e., no formate in the reactors) in triplicate, titration studies of increasing formate concentration, and duplicates/triplicates of varying formate concentration. Experiments were conducted in the laboratories of Texas Tech University.
(§2) The reactors were setup on Mar. […] The substrate taken was 2 parts of 50 g/liter sucrose solution mixed with 1 part of digested municipal sludge which acts as the seed material for incorporation of microbes into the reactors. The experiments were started with the following protocol. [drawing 1]

[3] = test system: anaerobic mixed culture (domestic sewage); test: Anaerobic digestion of domestic sewage, overall effect of formate salt concentration
Protocol: The various formate salts include, but are not limited to sodium formate (NaHCOO), potassium formate (KHCOO), ammonium formate (NH4COO), calcium formate (Ca(HCOO)2), and others either singly or in combination. These formate salts have been tested for concentrations ranging from 10 mg/L (˜10 ppm) to as high as […] (100,000 mg/L) based on the organic matter available for digestion.
Two tests were run in which sodium formate in concentrations ranging from a few parts per million (ppm) up to ten percent (10%) on a mass basis were added to samples taken from a publicly owned anaerobic digester. The samples were first cultured in laboratory sized batch reactors. The twelve batch reactors were then sampled, and studied for periods of up to fifty-five days. The process variables that were monitored included COD (Chemical Oxygen Demand), TS (Total Solids), TVS (Total Volatile Solids) and the pH of the culture. Time and the initial sodium formate concentration level were the independent variables. Finally measurements were also made of the bacterial counts at the beginning and at the end of the fifty five day period.
as §1

[4] = test system: mixed culture from municipal sludge digester; test: Volume and composition of gas generated in batch anaerobic digesters
Source text: Volumetric gas production measurements
The gases generated by the biological activity within the reactors were collected in the overhanging plastic bags. The bags are connected to a tank containing colored water via a gas port used for sampling purpose to determine the gas composition. To measure the volume of gas in the bag, the water in the tank is drained out maintaining a suction pressure head difference of 2 cm between the atmospheric air and the gas inside the tank. The water is drained until there is a jump in the pressure head differences, which is actually noted by observing a jump in the difference in levels of manometer limbs. […] The difference between final water level and initial water level is measured by the scale on the side of the tank and is indicative of the volume of gas collected in each of the bags. The gas is returned to the bags by pumping the drained water back into the water tank, whereby the collected gas inside the water tank is pushed back into the overhanging plastic bags.
Gas composition measurements
To analyze the composition of the gases collected, a small sample of gas was withdrawn through a gas port and then sent out for analysis by a commercial laboratory utilizing gas chromatography.
as §1, §2

[5] = test system: mixed culture from a publicly owned anaerobic digester; test: Identification of predominant colony types in the mixed culture; type: cell-based
[6] = 100000 ppm, average of reactors

Q: With O=C[O-].[Na+] [sodium formate] as the compound, how does the bacterial counts ([1]; 100 ppm to 100,000 ppm, lower counts at higher concentrations) read?
A: > 10^5 CFU per milliliter

Q: What about the “Colony forming units per mL” value ([1]; 5000 ppm, reactor 3) of the same compound?
A: 0.59 × 10^7 per mL

Q: And the “Colony forming units per mL” value ([1]; 10000 ppm, single reactors (2, 4, 5))?
A: 0.26 × 10^7 per mL and 0.19 × 10^7 per mL and 0.38 × 10^7 per mL

Q: What about the “Total Solids” value ([2]; 1000 ppm, day 2) of the same compound?
A: 37.6 g/L and 35.9 g/L

Q: And the “Total Solids” value ([2]; 1000 ppm, day 7)?
A: 33.8 g/L and 32.5 g/L and 32.2 g/L

Q: And the “Total Solids” value ([2]; 1000 ppm, day 16)?
A: 20.3 g/L and 15.8 g/L and 21.4 g/L

Q: And the “Total Solids” value ([2]; 1000 ppm, day 55)?
A: 15.6 g/L and 13.2 g/L and 17.3 g/L

Q: What about the “Total Solids” value ([2]; 1000 ppm, day 243 (so in the source)) of the same compound?
A: 16.6 g/L and 13.0 g/L and 17.8 g/L

Q: And the “Total Solids” value ([2]; 1000 ppm, formate addition at t = 0)?
A: 42.3 g/L and 41.8 g/L and 40.8 g/L

Q: What about the “Total Solids” value ([2]; 5000 ppm, day 2) of the same compound?
A: 35.5 g/L

Q: What about the “Total Solids” value ([2]; 5000 ppm, day 7) of the same compound?
A: 34.6 g/L

Q: And the “Total Solids” value ([2]; 5000 ppm, day 16)?
A: 20.7 g/L

Q: What about the “Total Solids” value ([2]; 5000 ppm, day 55) of the same compound?
A: 23.2 g/L

Q: And the “Total Solids” value ([2]; 5000 ppm, day 243 (so in the source))?
A: 22.0 g/L

Q: What about the “Total Solids” value ([2]; 5000 ppm, formate addition at t = 0) of the same compound?
A: 47.5 g/L

Q: And the “Total Solids” value ([2]; 10000 ppm, day 2)?
A: 44.5 g/L and 52.6 g/L and 48.3 g/L

Q: And the “Total Solids” value ([2]; 10000 ppm, day 7)?
A: 36.3 g/L and 45.3 g/L and 43.5 g/L

Q: And the “Total Solids” value ([2]; 10000 ppm, day 16)?
A: 34.6 g/L and 41.2 g/L and 31.2 g/L

Q: And the “Total Solids” value ([2]; 10000 ppm, day 55)?
A: 36.3 g/L and 36.8 g/L and 33.3 g/L

Q: What about the “Total Solids” value ([2]; 10000 ppm, day 243 (so in the source)) of the same compound?
A: 33.4 g/L and 39.6 g/L and 30.7 g/L

Q: What about the “Total Solids” value ([2]; 10000 ppm, formate addition at t = 0) of the same compound?
A: 55.1 g/L and 54.9 g/L and 53.4 g/L

Q: What about the “Total Solids” value ([2]; 100000 ppm, day 2) of the same compound?
A: 254 g/L and 289.6 g/L

Q: What about the “Total Solids” value ([2]; 100000 ppm, day 7) of the same compound?
A: 91.5 g/L and 147.4 g/L

Q: What about the “Total Solids” value ([2]; 100000 ppm, day 16) of the same compound?
A: 129 g/L and 151.1 g/L

Q: What about the “Total Solids” value ([2]; 100000 ppm, day 55) of the same compound?
A: 128 g/L and 160 g/L

Q: And the “Total Solids” value ([2]; 100000 ppm, day 243 (so in the source))?
A: 125 g/L and 147.8 g/L

Q: What about the “Total Solids” value ([2]; 100000 ppm, formate addition at t = 0) of the same compound?
A: 180.4 g/L and 188 g/L

Q: And the “effect on anaerobic digestion over the tested concentration range” value ([3]; 10 mg/L to 100,000 mg/L based on the organic matter available for digestion)?
A: beneficial at all concentration levels

Q: What about the “concentration range of greatest effects” value ([3]; 10 mg/L to 100,000 mg/L tested) of the same compound?
A: greatest effects being observed over the 100 ppm to the 2,000-mg/L range

Q: What about the “cellular activity in the mixed culture” value ([3]; above the 5000 ppm concentration level) of the same compound?
A: slightly, but still progressively more inhibited

Q: What about the “effect of accidental addition of too much (titration data)” value ([3]; overdose) of the same compound?
A: would not shut down the digester culture

Q: What about the “effect on anaerobic digestion process” value ([3]; up to 5000 ppm, batch reactors, up to 55 days) of the same compound?
A: facilitate the anaerobic digestion process at all concentration levels up to 5000 ppm

Q: And the “Average Composition CH4” value ([4]; 1000 ppm, average of reactors)?
A: 0%

Q: What about the “Average Composition CO2” value ([4]; 1000 ppm, average of reactors) of the same compound?
A: 18.3%

Q: And the “Average Composition N2” value ([4]; 1000 ppm, average of reactors)?
A: 71.7%

Q: What about the “Composition CH4” value ([4]; 1000 ppm, single reactors) of the same compound?
A: 0%

Q: What about the “Composition CO2” value ([4]; 1000 ppm, single reactors) of the same compound?
A: 40% and 20% and 25%

Q: And the “Composition N2” value ([4]; 1000 ppm, single reactors)?
A: 60% and 80% and 75%

Q: What about the “Average Composition CH4” value ([4]; 5000 ppm) of the same compound?
A: 0.1%

Q: What about the “Average Composition CO2” value ([4]; 5000 ppm) of the same compound?
A: 41%

Q: What about the “Average Composition N2” value ([4]; 5000 ppm) of the same compound?
A: 59%

Q: What about the “Composition CH4” value ([4]; 5000 ppm, reactor 3) of the same compound?
A: 0.1%

Q: And the “Composition CO2” value ([4]; 5000 ppm, reactor 3)?
A: 41%

Q: And the “Composition N2” value ([4]; 5000 ppm, reactor 3)?
A: 59%

Q: And the “Volume of CO2 generated” value ([4]; 5000 ppm, reactor 3)?
A: 725 mL

Q: And the Volume of gas ([4]; 5000 ppm, reactor 3)?
A: 1750 mL

Q: What about the “Average Composition CH4” value ([4]; 10000 ppm, average of reactors) of the same compound?
A: 0%

Q: What about the “Average Composition CO2” value ([4]; 10000 ppm, average of reactors) of the same compound?
A: 41.7%

Q: What about the “Average Composition N2” value ([4]; 10000 ppm, average of reactors) of the same compound?
A: 58.3%

Q: What about the “Composition CH4” value ([4]; 10000 ppm, single reactors) of the same compound?
A: 0%

Q: What about the “Composition CO2” value ([4]; 10000 ppm, single reactors) of the same compound?
A: 57% and 43% and 40%

Q: What about the “Composition N2” value ([4]; 10000 ppm, single reactors) of the same compound?
A: 43% and 57% and 60%

Q: What about the “Average Composition CH4” value [4, 6] of the same compound?
A: 0%

Q: And the “Average Composition CO2” value [4, 6]?
A: 59%

Q: What about the “Average Composition N2” value [4, 6] of the same compound?
A: 41.5%

Q: What about the “Composition CH4” value ([4]; 100000 ppm, single reactors) of the same compound?
A: 0%

Q: What about the “Composition CO2” value ([4]; 100000 ppm, single reactors) of the same compound?
A: 70% and 47%

Q: And the “Composition N2” value ([4]; 100000 ppm, single reactors)?
A: 30% and 53%

Q: What about the “Volume of CO2 generated” value ([4]; 100000 ppm, single reactors) of the same compound?
A: 910 mL and 1663 mL

Q: And the colony types identified ([5]; 10% level)?
A: only Cellulomonas cellulans was identified along with large masses of yeast cells

Q: What about the “bio-diversity of the mixed culture” value ([5]; 1000-5000 ppm) of the same compound?
A: increase the bio-diversity of the mixed culture

Q: What about the “number of predominant colony types” value ([5]; 1000 ppm, control had two) of the same compound?
A: eight

Q: What about the “growth of colonies in the mixed culture” value ([5]; lower levels (≦5000 ppm)) of the same compound?
A: facilitate growth of some of the more dormant colonies in the mixed culture
